{"source": "patent US8008283B2", "about": "“Methods and compositions for the treatment of neuropsychiatric disorders” (Neurotherapeutics Pharma, Inc., priority 2005, dated 2011)", "key": {"hippocampal slices": {"system": "hippocampal slices", "details": "Pearce, Neuron 10:189, 1993; cited from earlier work"}, "rats": {"system": "rats", "assay": "fear potentiated startle (FPS) test in rats", "type": "in vivo, rat", "experimental": "Twenty-four rats received a 30 min period of habituation to the FPS apparatus. Twenty-four hours later, baseline startle amplitudes were collected. The rats were then divided into three matched groups based on baseline startle amplitudes. […] Groups 1 and 2 therefore consisted of 8 rats each, with Group 3 consisting of […]. Following baseline startle amplitude collection, 20 light/shock pairings were delivered on two sessions over two consecutive days (i.e., 10 light/shock pairings per day). […] Immediately following injections, startle amplitudes were assessed during startle alone trials and startle plus fear (light followed by startle) trials. Fear potentiated startle (light+startle amplitudes minus startle alone amplitudes) was compared between the treatment groups.\nAnimals were trained and tested in four identical stabilimeter devices (Med-Associates). Briefly, each rat was placed in a small Plexiglas cylinder. The floor of each stabilimeter consisted of four 6-mm-diameter stainless steel bars spaced 18 mm apart through which shock can be delivered. Cylinder movements result in displacement of an accelerometer where the resultant voltage is proportional to the velocity of the cage displacement. Startle amplitude is defined as the maximum accelerometer voltage that occurs during the first 0.25 sec after the startle stimulus is delivered. […] Each stabilimeter was enclosed in a ventilated, light-, and sound-attenuating box. All sound level measurements were made with a Precision Sound Level Meter. The noise of a ventilating fan attached to a sidewall of each wooden box produced an overall background noise level of 64 dB. The startle stimulus was a 50 ms burst of white noise (5 ms rise-decay time) generated by a white noise generator. The visual conditioned stimulus employed was illumination of a light bulb adjacent to the white noise source. The unconditioned stimulus was a 0.6 mA foot shock with duration of 0.5 sec, generated by four constant-current shockers located outside the chamber. The presentation and sequencing of all stimuli were under the control of the microcomputer.\nFPS procedures consisted of 5 days of testing; during days 1 and 2 baseline startle responses were collected, days 3 and 4 light/shock pairings were delivered, day 5 testing for fear potentiated startle was conducted.\nMatching: On the first two days all rats were placed in the Plexiglas cylinders and 3 min later presented with 30 startle stimuli at a 30 sec interstimulus interval.\nTraining: On the following 2 days, rats were placed in the Plexiglas cylinders. […] The shock was delivered during the last 0.5 sec of the 3.7 sec CSs at an average intertrial interval of 4 min (range, 3-5 min).\nThese initial startle stimuli were used to again habituate the rats to the acoustic startle stimuli. Thirty seconds after the last of these stimuli, each animal received 60 startle stimuli with half of the stimuli presented alone (startle alone trials) and the other half presented 3.2 sec after the onset of the 3.7 sec CS (CS-startle trials). All startle stimuli are presented at a mean 30 sec interstimulus interval, randomly varying between 20 and 40 sec.\nMeasures: The treatment groups were compared on the difference in startle amplitude between CS-startle and startle-alone trials (fear potentiation).\nThe therapeutic efficacy of several bumetanide analogs in alleviating anxiety was examined using the fear potentiated startle (FPS) test in rats as described above."}, "rat hippocampal slices": {"system": "rat hippocampal slices", "assay": "stimulation evoked after discharge activity in rat hippocampal slices (Example 68)", "type": "cell-based", "experimental": "Sprague-Dawley rats (males and females; 25-35 days old) were decapitated, the top of the skull was rapidly removed, and the brain chilled with ice-cold oxygenated slicing medium. […] A hemisphere of brain containing hippocampus was blocked and glued (cyanoacrylic adhesive) to the stage of a Vibroslicer (Frederick Haer, Brunsick, Me.). […] In the recording chamber, the slices were perfused with oxygenated recording medium at 34-35° C. All animal procedures were conducted in accordance with NIH and University of Washington animal care guidelines. In most slice experiments, simultaneous extracellular field electrode recordings were obtained from CA1 and CA3 areas. A bipolar tungsten stimulating electrode was placed on the Schaffer collaterals to evoke synaptically-driven field responses in CA1. Stimuli consisted of 100-300 μsec duration pulses at an intensity of four times the population-spike threshold. After discharges were evoked by a 2 second train of such stimuli delivered at 60 Hz."}, "[1]": {"system": "hippocampal slices, areas CA1 and CA3", "experimental": "Hippocampal slices were prepared from Sprague-Dawley adult rats as described previously. Transverse hippocampal slices 100 μm thick were cut with a vibrating cutter. Slices typically contained the entire hippocampus and subiculum. After cutting, slices were stored in an oxygenated holding chamber at room temperature for at least one hour before recording.\nSharp-electrodes for intracellular recordings from CA1 and CA3 pyramidal cells were filled with 4 M potassium acetate. Field recordings from the CA1 and CA3 cell body layers were acquired with low-resistance glass electrodes filled with 2 M NaCl. For stimulation of the Schaffer collateral or hilar pathways, a small monopolar tungsten electrode was placed on the surface of the slice. Spontaneous and stimulation-evoked activities from field and intracellular recordings were digitized (Neurocorder, Neurodata Instruments, New York, N.Y.) and stored on videotape. AxoScope software (Axon Instruments) on a personal computer was used for off-line analysis of data.\nIn some experiments, normal or low-chloride medium was used containing bicuculline.\nAfter placement in the interface chamber, slices were superfused at approximately 1 ml/min. At this flow-rate, it took 8-10 minutes for changes in the perfusion media to be completed. All of the times reported here have taken this delay into account and have an error of approximately ±2 minutes.\nSingle electrical stimuli were delivered to the Schaffer collaterals, midway between areas CA1 and CA3, every 30 seconds so that the field responses in areas CA1 and CA3 could be monitored throughout the duration of each experiment."}, "[2]": {"system": "urethane-anesthetized rats", "assay": "kainic acid-evoked electrical status epilepticus in urethane-anesthetized rats (Example 70)", "type": "in vivo, rat", "experimental": "Body temperature was monitored using a rectal temperature probe and maintained at 35-37° C. with a heating pad; heart rate (EKG) was continuously monitored. The jugular vein was cannulated on one side for intravenous drug administration. Rats were placed in a Kopf stereotaxic device (with the top of the skull level), and a bipolar stainless-steel microelectrode insulated to 0.5 mm of the tip was inserted to a depth of 0.5-1.2 mm from the cortical surface to record electroencephalographic (EEG) activity in the fronto-parietal cortex. In some experiments, a 2M NaCl-containing pipette was lowered to a depth of 2.5-3.0 mm to record hippocampal EEG. Data were stored on VHS videotape and analyzed off-line.\nFollowing the surgical preparation and electrode placement, animals were allowed to recover for 30 minutes before the experiments were initiated with an injection of kainic acid (10-12 mg/kg i.v.). […] Experiments were terminated with the intravenous administration of urethane. Animal care was in accordance with NIH guidelines and approved by the University of Washington Animal Care Committee."}, "synchronized discharges": {"system": "synchronized discharges", "details": "Hochman et al. Science 270:99-102, 1995; cited from earlier work"}, "[3]": {"details": "2.5 mM furosemide, after 20 minutes of perfusion"}}}
{"smiles": "NS(=O)(=O)c1cc(C(=O)O)c(NCc2ccco2)cc1Cl", "note": "[furosemide]", "values": [{"measurement": "latency of block of a component of the inhibitory currents", "setting": "hippocampal slices", "result": "< 15", "unit": "min"}, {"measurement": "difference score one week after treatment", "setting": "rats; compared with vehicle alone, FIG. 10", "result": "higher difference score"}, {"measurement": "statistical difference from vehicle in difference score one week after treatment", "setting": "rats; error bars large for vehicle-treated animals", "result": "possibly a small difference"}, {"measurement": "difference score (startle alone - fear potentiated startle) on the test day", "setting": "rats; i.v. in DMSO, furosemide 100 mg/kg, bumetanide 70 mg/kg, compared with vehicle alone, FIG. 8", "result": "statistically significantly lower difference score"}, {"measurement": "CA1 field response to single test pulse", "setting": "rat hippocampal slices; [3]", "result": "hyper-excitable field response"}, {"measurement": "stimulation-evoked optical changes", "setting": "rat hippocampal slices; [3]", "result": "blocked"}, {"measurement": "electrical after discharge activity", "setting": "rat hippocampal slices; 2.5 mM furosemide, after 20 minutes of perfusion, Schaffer collateral stimulation 60 Hz 2 s, CA1", "result": "blocked"}, {"measurement": "recovery after washout", "setting": "rat hippocampal slices; after 45 minutes of perfusion with normal bathing medium", "result": "restoration of initial response patterns"}, {"measurement": "minimum concentration required to block both the after discharges and optical changes", "setting": "rat hippocampal slices; dose-dependency experiments", "result": 1.25, "unit": "mM"}, {"measurement": "order of cessation of spontaneous bursting in CA1 and CA3", "setting": "[1]; 2.5 mM furosemide", "result": "ceased in area CA1 before the bursting ceased in area CA3"}, {"measurement": "time CA3 continued to discharge after CA1 became silent", "setting": "[1]; 2.5 mM furosemide or low-chloride medium", "result": "5 to 10", "unit": "min"}, {"measurement": "field responses to stimulation of the Schaffer collaterals", "setting": "[1]; throughout all stages of the experiments", "result": "evoked hyperexcited field responses in both the CA1 and CA3 cell body layers"}, {"measurement": "cortical activity", "setting": "[2]; 90 minutes after the furosemide injection", "result": "remained near normal baseline levels"}, {"measurement": "latency of block of seizure activity", "setting": "[2]; intravenous furosemide, cumulative dose 40-60 mg/kg", "result": "30 to 45", "unit": "min"}, {"measurement": "seizure activity (EEG)", "setting": "[2]; intravenous furosemide, cumulative dose 40-60 mg/kg, kainic acid 10-12 mg/kg i.v.", "result": "blocked"}, {"measurement": "synchronized discharges and hyperexcited synaptic responses", "setting": "synchronized discharges", "result": "reversibly blocked synchronized discharges without reducing hyperexcited synaptic responses"}]}
